Legend:
Assay type in all cases: functional
Details in all cases: read-out: GI
SF-268 = test: Growth inhibition of human SF-268 cells at 10 uM incubated for 48 hrs by sulforhodamine B assay relative to control
NCI/ADR-RES = test: Growth inhibition of human NCI/ADR-RES cells at 10 uM incubated for 48 hrs by sulforhodamine B assay relative to control
SNB-19 = test: Growth inhibition of human SNB-19 cells at 10 uM incubated for 48 hrs by sulforhodamine B assay relative to control
DU-145 = test: Growth inhibition of human DU-145 cells at 10 uM incubated for 48 hrs by sulforhodamine B assay relative to control
SN12C = test: Growth inhibition of human SN12C cells at 10 uM incubated for 48 hrs by sulforhodamine B assay relative to control
MCF7 = test: Growth inhibition of human MCF7 cells at 10 uM incubated for 48 hrs by sulforhodamine B assay relative to control
SK-MEL-5 = test: Growth inhibition of human SK-MEL-5 cells at 10 uM incubated for 48 hrs by sulforhodamine B assay relative to control
UACC-257 = test: Growth inhibition of human UACC-257 cells at 10 uM incubated for 48 hrs by sulforhodamine B assay relative to control
OVCAR-8 = test: Growth inhibition of human OVCAR-8 cells at 10 uM incubated for 48 hrs by sulforhodamine B assay relative to control
UO-31 = test: Growth inhibition of human UO-31 cells at 10 uM incubated for 48 hrs by sulforhodamine B assay relative to control
Malme-3M = test: Growth inhibition of human Malme-3M cells at 10 uM incubated for 48 hrs by sulforhodamine B assay relative to control
SF-295 = test: Growth inhibition of human SF-295 cells at 10 uM incubated for 48 hrs by sulforhodamine B assay relative to control
COLO 205 = test: Growth inhibition of human COLO 205 cells at 10 uM incubated for 48 hrs by sulforhodamine B assay relative to control
SK-MEL-28 = test: Growth inhibition of human SK-MEL-28 cells at 10 uM incubated for 48 hrs by sulforhodamine B assay relative to control
OVCAR-5 = test: Growth inhibition of human OVCAR-5 cells at 10 uM incubated for 48 hrs by sulforhodamine B assay relative to control
OVCAR-3 = test: Growth inhibition of human OVCAR-3 cells at 10 uM incubated for 48 hrs by sulforhodamine B assay relative to control
HCC 2998 = test: Growth inhibition of human HCC 2998 cells at 10 uM incubated for 48 hrs by sulforhodamine B assay relative to control
HCT-116 = test: Growth inhibition of human HCT-116 cells at 10 uM incubated for 48 hrs by sulforhodamine B assay relative to control
OVCAR-4 = test: Growth inhibition of human OVCAR-4 cells at 10 uM incubated for 48 hrs by sulforhodamine B assay relative to control
MDA-MB-231 = test: Growth inhibition of human MDA-MB-231 cells at 10 uM incubated for 48 hrs by sulforhodamine B assay relative to control
TK-10 = test: Growth inhibition of human TK-10 cells at 10 uM incubated for 48 hrs by sulforhodamine B assay relative to control
LOX IMVI = test: Growth inhibition of human LOX IMVI cells at 10 uM incubated for 48 hrs by sulforhodamine B assay relative to control
SF-539 = test: Growth inhibition of human SF-539 cells at 10 uM incubated for 48 hrs by sulforhodamine B assay relative to control
HT-29 = test: Growth inhibition of human HT-29 cells at 10 uM incubated for 48 hrs by sulforhodamine B assay relative to control
RXF 393 = test: Growth inhibition of human RXF 393 cells at 10 uM incubated for 48 hrs by sulforhodamine B assay relative to control
HCT-15 = test: Growth inhibition of human HCT-15 cells at 10 uM incubated for 48 hrs by sulforhodamine B assay relative to control
CCRF-CEM = test: Growth inhibition of human CCRF-CEM cells at 10 uM incubated for 48 hrs by sulforhodamine B assay relative to control
NCI-H522 = test: Growth inhibition of human NCI-H522 cells at 10 uM incubated for 48 hrs by sulforhodamine B assay relative to control
K562 = test: Growth inhibition of human K562 cells at 10 uM incubated for 48 hrs by sulforhodamine B assay relative to control
SNB-75 = test: Growth inhibition of human SNB-75 cells at 10 uM incubated for 48 hrs by sulforhodamine B assay relative to control
NCI-H23 = test: Growth inhibition of human NCI-H23 cells at 10 uM incubated for 48 hrs by sulforhodamine B assay relative to control
UACC-62 = test: Growth inhibition of human UACC-62 cells at 10 uM incubated for 48 hrs by sulforhodamine B assay relative to control
HOP-92 = test: Growth inhibition of human HOP-92 cells at 10 uM incubated for 48 hrs by sulforhodamine B assay relative to control
M14 = test: Growth inhibition of human M14 cells at 10 uM incubated for 48 hrs by sulforhodamine B assay relative to control
Hs-578T = test: Growth inhibition of human Hs-578T cells at 10 uM incubated for 48 hrs by sulforhodamine B assay relative to control
IGROV-1 = test: Growth inhibition of human IGROV-1 cells at 10 uM incubated for 48 hrs by sulforhodamine B assay relative to control
MOLT-4 = test: Growth inhibition of human MOLT-4 cells at 10 uM incubated for 48 hrs by sulforhodamine B assay relative to control
NCI-H226 = test: Growth inhibition of human NCI-H226 cells at 10 uM incubated for 48 hrs by sulforhodamine B assay relative to control
BT-549 = test: Growth inhibition of human BT-549 cells at 10 uM incubated for 48 hrs by sulforhodamine B assay relative to control
HL-60(TB) = test: Growth inhibition of human HL-60(TB) cells at 10 uM incubated for 48 hrs by sulforhodamine B assay relative to control
MDA-MB-468 = test: Growth inhibition of human MDA-MB-468 cells at 10 uM incubated for 48 hrs by sulforhodamine B assay relative to control
MDA-MB-435 = test: Growth inhibition of human MDA-MB-435 cells at 10 uM incubated for 48 hrs by sulforhodamine B assay relative to control
PC-3 = test: Growth inhibition of human PC-3 cells at 10 uM incubated for 48 hrs by sulforhodamine B assay relative to control
KM12 = test: Growth inhibition of human KM12 cells at 10 uM incubated for 48 hrs by sulforhodamine B assay relative to control

## O=C(CN1CCCCC1)Nc1ccc(-c2nc3ccccc3s2)cc1
SF-268
  inhibition of growth at 10 µM: 0.48%
NCI/ADR-RES
  inhibition of growth at 10 µM: 6.26%
SNB-19
  inhibition of growth at 10 µM: -0.02%
DU-145
  inhibition of growth at 10 µM: 0.74%
SN12C
  inhibition of growth at 10 µM: 6.04%
MCF7
  inhibition of growth at 10 µM: 75.1%
SK-MEL-5
  inhibition of growth at 10 µM: 9.16%
UACC-257
  inhibition of growth at 10 µM: 2.05%
OVCAR-8
  inhibition of growth at 10 µM: -3.73%
UO-31
  inhibition of growth at 10 µM: 6.94%
Malme-3M
  inhibition of growth at 10 µM: -9.17%
SF-295
  inhibition of growth at 10 µM: 4.43%
COLO 205
  inhibition of growth at 10 µM: -5.35%
SK-MEL-28
  inhibition of growth at 10 µM: -9.51%
OVCAR-5
  inhibition of growth at 10 µM: -4.63%
OVCAR-3
  inhibition of growth at 10 µM: -0.25%
HCC 2998
  inhibition of growth at 10 µM: 9.72%
HCT-116
  inhibition of growth at 10 µM: 5.5%
OVCAR-4
  inhibition of growth at 10 µM: 4.89%
MDA-MB-231
  inhibition of growth at 10 µM: 41.5%
TK-10
  inhibition of growth at 10 µM: -14.8%
LOX IMVI
  inhibition of growth at 10 µM: 21%
SF-539
  inhibition of growth at 10 µM: -0.41%
HT-29
  inhibition of growth at 10 µM: 42.2%
RXF 393
  inhibition of growth at 10 µM: 13%
HCT-15
  inhibition of growth at 10 µM: 28%
CCRF-CEM
  inhibition of growth at 10 µM: 10.4%
NCI-H522
  inhibition of growth at 10 µM: -4.5%
K562
  inhibition of growth at 10 µM: 49.8%
SNB-75
  inhibition of growth at 10 µM: 1.53%
NCI-H23
  inhibition of growth at 10 µM: 20.8%
UACC-62
  inhibition of growth at 10 µM: 5.84%
HOP-92
  inhibition of growth at 10 µM: 44.5%
M14
  inhibition of growth at 10 µM: -5.76%
Hs-578T
  inhibition of growth at 10 µM: 12.6%
IGROV-1
  inhibition of growth at 10 µM: -10.3%
MOLT-4
  inhibition of growth at 10 µM: 14.3%
NCI-H226
  inhibition of growth at 10 µM: 11.3%
BT-549
  inhibition of growth at 10 µM: 1.67%
HL-60(TB)
  inhibition of growth at 10 µM: 15.8%
MDA-MB-468
  inhibition of growth at 10 µM: 73.7%
MDA-MB-435
  inhibition of growth at 10 µM: -6.67%
PC-3
  inhibition of growth at 10 µM: 15.5%
KM12
  inhibition of growth at 10 µM: 3.6%

## Cc1cc(C)n(CC(=O)Nc2ccc(-c3nc4ccccc4s3)cc2)n1
SF-268
  inhibition of growth at 10 µM: -0.26%
NCI/ADR-RES
  inhibition of growth at 10 µM: -2.56%
SNB-19
  inhibition of growth at 10 µM: 0.22%
DU-145
  inhibition of growth at 10 µM: -2.89%
SN12C
  inhibition of growth at 10 µM: -2.13%
MCF7
  inhibition of growth at 10 µM: 73.4%
SK-MEL-5
  inhibition of growth at 10 µM: 3.6%
UACC-257
  inhibition of growth at 10 µM: -7.21%
OVCAR-8
  inhibition of growth at 10 µM: 0.31%
UO-31
  inhibition of growth at 10 µM: 16.2%
Malme-3M
  inhibition of growth at 10 µM: -7.85%
SF-295
  inhibition of growth at 10 µM: -3.17%
COLO 205
  inhibition of growth at 10 µM: -12.4%
SK-MEL-28
  inhibition of growth at 10 µM: -8.88%
OVCAR-5
  inhibition of growth at 10 µM: -4.65%
OVCAR-3
  inhibition of growth at 10 µM: -1.21%
HCC 2998
  inhibition of growth at 10 µM: 7.15%
HCT-116
  inhibition of growth at 10 µM: -7.45%
OVCAR-4
  inhibition of growth at 10 µM: 2.19%
MDA-MB-231
  inhibition of growth at 10 µM: -7.87%
TK-10
  inhibition of growth at 10 µM: -6.36%
LOX IMVI
  inhibition of growth at 10 µM: 2.33%
SF-539
  inhibition of growth at 10 µM: 1.4%
HT-29
  inhibition of growth at 10 µM: -8.3%
RXF 393
  inhibition of growth at 10 µM: -29%
HCT-15
  inhibition of growth at 10 µM: -5.24%
CCRF-CEM
  inhibition of growth at 10 µM: 1.49%
NCI-H522
  inhibition of growth at 10 µM: -2.77%
K562
  inhibition of growth at 10 µM: -0.21%
SNB-75
  inhibition of growth at 10 µM: -0.57%
NCI-H23
  inhibition of growth at 10 µM: 6.19%
UACC-62
  inhibition of growth at 10 µM: 4.67%
HOP-92
  inhibition of growth at 10 µM: 2.31%
M14
  inhibition of growth at 10 µM: -11.3%
Hs-578T
  inhibition of growth at 10 µM: -13.4%
IGROV-1
  inhibition of growth at 10 µM: 2.57%
MOLT-4
  inhibition of growth at 10 µM: 16%
NCI-H226
  inhibition of growth at 10 µM: -0.25%
BT-549
  inhibition of growth at 10 µM: -15.3%
HL-60(TB)
  inhibition of growth at 10 µM: -2.97%
MDA-MB-468
  inhibition of growth at 10 µM: 103%
MDA-MB-435
  inhibition of growth at 10 µM: -7.5%
PC-3
  inhibition of growth at 10 µM: 13.2%
KM12
  inhibition of growth at 10 µM: -0.27%

From ChEMBL document CHEMBL4765227, “Hit to lead optimization of a series of N-[4-(1,3-benzothiazol-2-yl)phenyl]acetamides as monoacylglycerol lipase inhibitors with potential anticancer activity” (Eur J Med Chem, 2016)
